The nature of series [1]: Degradation of prodrug in rat plasma (release of dexmedetomidine, HPLC). In kind it is in vitro ADME. Particulars: 37° C. The procedure:
The test prodrug was formulated as a 1 mg/mL of physiological saline solution, and then 100 μL of the prodrug solution was added to 900 μL of rat plasma. The test solution was vortexed for 30 s before incubation at 37° C. 50 μL of drug-containing plasma was collected at 0.5 min, 1 min, 2 min, 3 min, 5 min, 10 min, 15 min, 20 min, 30 min, and 60 min, respectively, to which was immediately added 150 μL of acetonitrile to terminate the enzymatic reaction, followed by adding the solution of internal standard telmisartan in methanol (30 μL, 20 μg/mL). Then, the resultant solution was centrifuged at 20000 rpm and 4° C. for 10 min. 100 μL of the supernatant was injected for detection by HPLC, and the concentration of dexmedetomidine was determined by an internal standard method. The degradation rate of the prodrug was calculated based on the concentration of dexmedetomidine. The chromatographic conditions are: Swell XDB C18 column (150 mm×4.6 mm, 5 μm); column temperature 30° C.; using gradient elution (see Table 1), mobile phase A: methanol, mobile phase B: 0.1% trifluoroacetic acid in water, and mobile phase C: acetonitrile; detection wavelength: 220 nm; flow rate: 1.0 mL/min; injection volume: 30 μL; retention time: 4.7 minutes for dexmedetomidine and 6.7 minutes for internal standard telmisartan. The linear range of dexmedetomidine: 2.5-100 μg/mL. Instruments: Waters 2695 high-performance liquid chromatograph, Waters 2996 photodiode array detector.

Series [2] concerns Male SD rats. Nature of the series: Hypnotic effect after tail vein injection (loss of righting reflex). Particulars: for ED50: Rattus norvegicus, 50% of the dose for the disappearance of righting reflex in rats, tail vein injection; for Onset time: tail vein injection of 2× ED50, loss of righting reflex; for Onset time / Duration: rats; for Duration: tail vein injection of 2× ED50, until recovery of righting reflex. It counts as in vivo, rat. On the procedure: Male SD rats, weighing 250-300 g, were randomly divided into groups, with 10 rats in each group. […] The onset times and the duration of hypnosis were recorded.

The subject of series [3] is Male SD rats. Nature of the series: Blood pressure change after tail vein injection (mean arterial pressure). The note with it: dosage 2× ED50, injection within 15 seconds, 60 min recording, rats under isoflurane. The procedure:
Male SD rats weighing 250-300 g were randomly divided into groups, with 10 rats in each group. General anesthesia was maintained by inhaling isoflurane. By intubating via femoral artery, blood pressure was monitored using the BL-420N biological signal collection and analysis system. minutes after blood pressure stabilization, the baseline mean arterial pressure (MAP0) was measured. Subsequently, the physiological saline solution of each test drug was injected via the tail vein (the dosage of each drug was the same as that in Experiment example 2, with a unified injection […] volume of 1 mL). […] All prodrug molecules were injected within 15 seconds. After injection of each drug, the change in blood pressure was continuously recorded for 60 min. […] The difference MAPΔ+ between the baseline mean arterial pressure (MAP0) and the highest mean arterial pressure (MAPmax) during the 60 min measurement time was calculated; the difference MAPΔ− between the baseline mean arterial pressure (MAP0) and the lowest mean arterial pressure (MAPmin) during the 60 min measurement time was also obtained; both of the difference values were used to calculate the maximum increase rate of mean arterial pressure +Δ%=MAPΔ+/MAP0*100% and the maximum decrease rate of mean arterial pressure −Δ%=MAPΔ−/MAP0*100%, respectively. The maximum increase rate of mean arterial pressure +Δ% and the maximum decrease rate −Δ% reflect the degree of blood pressure change that the body experienced after administration. The larger the value, the greater the blood pressure change that the body experienced.

Structures can show the parent of a compound that is named as a salt.

In general, ED50 refers to the midpoint of the dose-response relation.

On to `Cc1cccc([C@H](C)c2cn(COC(=O)C(C)C)cn2)c1C` [Compound 2-HCl], for which the “Degradation rate of prodrug %” value worked out at 35% in series [1] (0.5 min); 57% in series [1] (1 min); 87% in series [1] (2 min); 94% in series [1] (3 min); 100% in series [1] (5 min). In addition, the median effective dose (ED50) in series [2] came to 0.043 mg/kg. In addition, in series [2], the Onset time is 1.1 ± 0.2 min. In series [2], this molecule displayed a Duration of 63 ± 15 min. Also, the “+Δ % (The maximum increase rate of blood pressure)” value in series [3] was “*19 ± 11%”. The “−Δ % (The maximum decrease rate of blood pressure)” value in series [3] is listed as 32 ± 5%.
In the case of `Cc1cccc([C@H](C)c2cn(COP(=O)(O)O)cn2)c1C` [Compound 26], the “Degradation rate of prodrug %” value stood at 29% in series [1] (0.5 min); 31% in series [1] (1 min); 32% in series [1] (2 min); 33% in series [1] (3 min); 34% in series [1] (5 min); 35% in series [1] (10 min). Besides, the “Degradation rate of prodrug %” value in series [1] (15 min) is 37%; in series [1] (20 min) it was 38%; in series [1] (30 min), 43%; in series [1] (60 min), 56%. In series [2], this molecule registered an ED50 of 0.032 mg/kg. This molecule returned an Onset time in series [2] of 1.7 ± 0.3 min. The same molecule showed a Duration in series [2] of 46 ± 5 min. Also, in series [3], the “+Δ % (The maximum increase rate of blood pressure)” value is given as “*15 ± 8%”. Moreover, the “−Δ % (The maximum decrease rate of blood pressure)” value in series [3] was 36 ± 8%.
`CCOC(=O)CCC(=O)OCn1cnc([C@@H](C)c2cccc(C)c2C)c1` [Compound 27-HCl]: the “Degradation rate of prodrug %” value in series [1] (0.5 min) is given as 52%; in series [1] (1 min), 58%; in series [1] (2 min), 66%; in series [1] (5 min), 78%; in series [1] (10 min), 86%; in series [1] (15 min), 97%. For the same molecule, in series [1] (20 min), the “Degradation rate of prodrug %” value turned out to be 100%. It took a dose of 0.019 mg/kg to reach the 50% effect level in series [2] (ED50). Besides, the Onset time in series [2] was 1.4 ± 0.5 min. Moreover, the Duration in series [2] is listed as 52 ± 9 min. Also, the “+Δ % (The maximum increase rate of blood pressure)” value in series [3] is recorded as “*25 ± 13%”. In series [3], the “−Δ % (The maximum decrease rate of blood pressure)” value came out at 41 ± 9%.
For `COC(=O)CCC(=O)OCn1cnc([C@@H](C)c2cccc(C)c2C)c1` [Compound 25-HCl], the “Degradation rate of prodrug %” value was determined as 51% in series [1] (0.5 min); 56% in series [1] (1 min); 59% in series [1] (2 min); 64% in series [1] (3 min); 67% in series [1] (5 min); 68% in series [1] (10 min). The “Degradation rate of prodrug %” value in series [1] (15 min) stood at 69%; in series [1] (20 min) it was 72%; in series [1] (30 min), 76%; in series [1] (60 min) it was 79%. Also, the ED50 in series [2] turned out to be 0.041 mg/kg. In series [2], this molecule yielded an Onset time of 3.1 ± 0.9 min. In series [2], the Duration was determined as 63 ± 15 min. Moreover, the “+Δ % (The maximum increase rate of blood pressure)” value in series [3] is on record as 31 ± 14%. The “−Δ % (The maximum decrease rate of blood pressure)” value in series [3] is recorded as 37 ± 7%.
For the molecule `CCC(=O)OC(C)n1cnc([C@@H](C)c2cccc(C)c2C)c1` (stereo partly shown) [Compound 18-HCl], the “Degradation rate of prodrug %” value in series [1] (0.5 min) was found to be 17%; in series [1] (1 min) it was 33%; in series [1] (2 min), 42%; in series [1] (3 min), 48%; in series [1] (5 min), 54%; in series [1] (10 min) it was 59%. Also, the “Degradation rate of prodrug %” value came to 64% in series [1] (15 min), 69% in series [1] (20 min), 72% in series [1] (30 min) and 75% in series [1] (60 min). Moreover, the 50% effective dose (ED50) in series [2] was found to be 0.036 mg/kg. The Onset time in series [2] is recorded as 2.4 ± 0.9 min. Further, the Duration in series [2] came out at 41 ± 10 min. The “+Δ % (The maximum increase rate of blood pressure)” value in series [3] turned out to be 29 ± 12%. For the same molecule, the “−Δ % (The maximum decrease rate of blood pressure)” value in series [3] stood at 34 ± 8%.
As for `COC(=O)OCn1cnc([C@@H](C)c2cccc(C)c2C)c1` [Compound 13-HCl], the “Degradation rate of prodrug %” value in series [1] (0.5 min) amounted to 16%; in series [1] (1 min), 44%; in series [1] (2 min), 67%; in series [1] (3 min), 79%; in series [1] (5 min), 90%; in series [1] (10 min), 96%. For the same molecule, the “Degradation rate of prodrug %” value in series [1] (15 min) came to 100%. Besides, the 50% effect level in series [2] (ED50) was put at a dose of 0.025 mg/kg. For the same molecule, the Onset time in series [2] was 4.1 ± 1.3 min. Also, the Duration in series [2] came out at 36 ± 7 min. The “+Δ % (The maximum increase rate of blood pressure)” value in series [3] is listed as “*16 ± 8%”. For the same molecule, the “−Δ % (The maximum decrease rate of blood pressure)” value in series [3] was 39 ± 7%.
Turning to `CCC(=O)OCn1cnc([C@@H](C)c2cccc(C)c2C)c1` [Compound 10-HCl], the “Degradation rate of prodrug %” value in series [1] (0.5 min) was found to be 57%; in series [1] (1 min), 82%; in series [1] (2 min), 85%; in series [1] (3 min) it was 97%; in series [1] (5 min) it was 100%. The molecule further registered an ED50 in series [2] of 0.028 mg/kg. In series [2], this molecule had an Onset time of 2.3 ± 1.1 min. Moreover, in series [2], the Duration is 48 ± 12 min. Further, the “+Δ % (The maximum increase rate of blood pressure)” value in series [3] worked out at 31 ± 7%. In series [3], the “−Δ % (The maximum decrease rate of blood pressure)” value worked out at 40 ± 8%.
For the molecule `Cc1cccc([C@H](C)c2cn(COC(=O)C(C)(C)C)cn2)c1C` [Compound 3-HCl], the “Degradation rate of prodrug %” value in series [1] (0.5 min) is given as 36%; in series [1] (1 min), 73%; in series [1] (2 min), 87%; in series [1] (3 min), 96%; in series [1] (5 min) it was 100%. In series [2], this molecule came in with an ED50 of 0.059 mg/kg. The same molecule had an Onset time in series [2] of 2.6 ± 1.1 min. Besides, the Duration in series [2] came to 50 ± 10 min. Further, the “+Δ % (The maximum increase rate of blood pressure)” value in series [3] is on record as “*13 ± 6%”. Also, in series [3], the “−Δ % (The maximum decrease rate of blood pressure)” value is recorded as 41 ± 8%.
Consider `Cc1cccc([C@H](C)c2cn(COC(=O)OC3CC3)cn2)c1C` [Compound 22-HCl], for which the “Degradation rate of prodrug %” value in series [1] (0.5 min) is listed as 91%. The “Degradation rate of prodrug %” value in series [1] (1 min) came out at 97%. In addition, the “Degradation rate of prodrug %” value in series [1] (2 min) came to 100%. In series [2], this molecule had an ED50 of 0.024 mg/kg, an Onset time of 1.5 ± 0.2 min and a Duration of 48 ± 9 min. Besides, in series [3], the “+Δ % (The maximum increase rate of blood pressure)” value is given as 34 ± 7% and the “−Δ % (The maximum decrease rate of blood pressure)” value is 39 ± 6%.
In the case of `COC(=O)COC(=O)OCn1cnc([C@@H](C)c2cccc(C)c2C)c1` [Compound 23-HCl], the “Degradation rate of prodrug %” value in series [1] (0.5 min) is reported as 23%; in series [1] (5 min) it was 25%; in series [1] (10 min) it was 27%; in series [1] (15 min) it was 28%; in series [1] (20 min) it was 29%; in series [1] (30 min), 31%. The “Degradation rate of prodrug %” value in series [1] (60 min) is recorded as 34%. Also, the ED50 in series [2] stood at 0.051 mg/kg. For the same molecule, the Onset time in series [2] was 1.7 ± 0.4 min. In series [2], this molecule had a Duration of 61 ± 15 min. The “+Δ % (The maximum increase rate of blood pressure)” value in series [3] came to 29 ± 7%. Moreover, the “−Δ % (The maximum decrease rate of blood pressure)” value in series [3] is reported as 35 ± 8%.
As for `Cc1cccc([C@H](C)c2cn(COC(=O)OC(C)C)cn2)c1C` [Compound 7-HCl], the “Degradation rate of prodrug %” value in series [1] (0.5 min) worked out at 22%; in series [1] (1 min), 46%; in series [1] (2 min) it was 67%; in series [1] (3 min), 88%; in series [1] (5 min) it was 97%; in series [1] (10 min), 100%. This molecule also returned a 50% effective dose (ED50) in series [2] of 0.036 mg/kg. Further, the Onset time in series [2] was determined as 4.6 ± 1.3 min. Also, the Duration in series [2] was determined as 39 ± 11 min. For the same molecule, the “+Δ % (The maximum increase rate of blood pressure)” value in series [3] was “*17 ± 8%”. Besides, the “−Δ % (The maximum decrease rate of blood pressure)” value in series [3] was 37 ± 8%.

The record behind these values is patent publication US20240217936A1, “5-BENZY[…] AND PREPARATION METHOD THEREFOR AND USE THEREOF” (WEST CHINA HOSPITAL, SICHUAN UNIVERSITY, priority 2021, published 2024).
